Data as given in patent US20240424109A1, “GLUCOSE-[…] CONJUGATES COMPRISING A TETRA-VALENT SUGAR CLUSTER FOR TREATMENT OF DIABETES” (Merck Sharp & Dohme LLC, priority 2021, published 2024).
pIC50: −log10 of the molar value.

Key:
[1] = target: T1, Human macrophage mannose receptor 1 (MRC1) (Homo sapiens, UniProt P22897); experiment: Human macrophage mannose receptor 1 (MRC1) competition binding assay; conditions: competition against Eu-labeled mannosylated-BSA
T1 sequence (P22897 19-1456): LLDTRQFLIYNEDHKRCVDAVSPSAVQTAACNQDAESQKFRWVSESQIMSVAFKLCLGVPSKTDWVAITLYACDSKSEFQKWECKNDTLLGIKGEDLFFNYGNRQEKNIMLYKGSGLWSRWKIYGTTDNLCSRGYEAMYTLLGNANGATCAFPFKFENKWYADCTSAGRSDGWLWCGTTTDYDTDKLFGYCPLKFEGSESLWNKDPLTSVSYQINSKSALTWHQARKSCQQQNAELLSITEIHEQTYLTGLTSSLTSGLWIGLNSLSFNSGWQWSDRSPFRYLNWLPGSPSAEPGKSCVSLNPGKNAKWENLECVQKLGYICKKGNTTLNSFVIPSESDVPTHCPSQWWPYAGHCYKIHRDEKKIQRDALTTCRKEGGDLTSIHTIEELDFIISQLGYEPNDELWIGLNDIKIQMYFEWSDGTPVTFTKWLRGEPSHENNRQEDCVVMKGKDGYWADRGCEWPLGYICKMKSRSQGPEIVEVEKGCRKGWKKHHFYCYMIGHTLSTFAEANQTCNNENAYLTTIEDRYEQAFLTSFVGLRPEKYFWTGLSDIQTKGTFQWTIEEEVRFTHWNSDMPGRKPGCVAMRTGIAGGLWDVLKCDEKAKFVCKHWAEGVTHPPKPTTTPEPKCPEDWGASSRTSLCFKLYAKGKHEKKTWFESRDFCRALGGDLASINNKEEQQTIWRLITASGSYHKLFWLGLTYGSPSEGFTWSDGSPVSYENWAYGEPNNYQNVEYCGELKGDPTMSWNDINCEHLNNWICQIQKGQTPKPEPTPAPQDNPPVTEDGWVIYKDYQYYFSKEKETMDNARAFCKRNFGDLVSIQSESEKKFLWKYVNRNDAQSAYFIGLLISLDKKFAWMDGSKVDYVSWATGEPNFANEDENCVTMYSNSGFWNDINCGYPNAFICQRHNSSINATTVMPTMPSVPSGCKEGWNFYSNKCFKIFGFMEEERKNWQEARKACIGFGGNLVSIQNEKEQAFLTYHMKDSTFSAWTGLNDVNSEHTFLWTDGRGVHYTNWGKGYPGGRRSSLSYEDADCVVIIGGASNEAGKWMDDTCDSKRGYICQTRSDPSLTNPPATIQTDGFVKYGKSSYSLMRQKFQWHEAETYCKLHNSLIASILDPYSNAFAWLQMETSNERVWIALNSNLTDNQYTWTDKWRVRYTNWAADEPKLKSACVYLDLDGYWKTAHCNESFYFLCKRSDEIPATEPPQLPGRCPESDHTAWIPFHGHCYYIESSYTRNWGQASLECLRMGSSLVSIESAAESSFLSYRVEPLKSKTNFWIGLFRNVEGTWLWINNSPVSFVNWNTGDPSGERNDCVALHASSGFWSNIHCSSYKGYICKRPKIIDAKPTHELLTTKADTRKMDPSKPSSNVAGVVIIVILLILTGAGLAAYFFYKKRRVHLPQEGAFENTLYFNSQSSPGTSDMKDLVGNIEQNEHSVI
Procedure: The competition binding assay for MRC1 utilized a ligand, mannosylated-BSA labeled with the DELFIA Eu-N1-ITC reagent (labeling kit for europium labeling of proteins and polypetides for use in dissociation-enhanced time-resolved fluorometric assay), as reported in the literature. Assay was performed either in a 96-well plate with 100 μL well volume (Method E) or in a 384-well plate with 25 μL well volume (Method F). […] The antibody was incubated in the plate for 1 h at rt with shaking. The plate was washed with wash buffer 3-5 times followed by addition of MRC1 (2 ng/μl final concentration) in PBS containing 1% stabilizer BSA. The plate was incubated at rt with gentle shaking for 1 h. The plate was washed three times with wash buffer. […]
(§1) The in vitro biological activities towards insulin receptor (IR) were measured by either ligand competition assays or functional phosphorylation assays, as described above, labeled as following: Method A: IR phosphorylation assay based on 96-well; Method B: IR phosphorylation assay based on 384-well with automated liquid dispense; Method C: cell-based IR binding assay; Method D: SPA IR binding assay method E; Method E: MRC1 assay was performed in a 96-well plate; Method F: MRC1 assay was performed in a 384-well plate.

[2] = target: T2, human insulin receptor type B (IR(B)) (Homo sapiens, UniProt P06213); experiment: Insulin receptor competition binding assay (125[I]-insulin; whole cell or SPA)
T2 construct: expressed in transfected cells; host or cells: CHO cells (G418 selection)
Procedure: Method D: IR binding assay was run in a scintillation proximity assay (SPA) in 384-well format using cell membranes prepared from CHO cells overexpressing human IR(B) grown in F12 media containing 10% FBS and antibiotics (G418, Penicillin/[…]).
as §1

T2 sequence (P06213 28-758 limits assumed): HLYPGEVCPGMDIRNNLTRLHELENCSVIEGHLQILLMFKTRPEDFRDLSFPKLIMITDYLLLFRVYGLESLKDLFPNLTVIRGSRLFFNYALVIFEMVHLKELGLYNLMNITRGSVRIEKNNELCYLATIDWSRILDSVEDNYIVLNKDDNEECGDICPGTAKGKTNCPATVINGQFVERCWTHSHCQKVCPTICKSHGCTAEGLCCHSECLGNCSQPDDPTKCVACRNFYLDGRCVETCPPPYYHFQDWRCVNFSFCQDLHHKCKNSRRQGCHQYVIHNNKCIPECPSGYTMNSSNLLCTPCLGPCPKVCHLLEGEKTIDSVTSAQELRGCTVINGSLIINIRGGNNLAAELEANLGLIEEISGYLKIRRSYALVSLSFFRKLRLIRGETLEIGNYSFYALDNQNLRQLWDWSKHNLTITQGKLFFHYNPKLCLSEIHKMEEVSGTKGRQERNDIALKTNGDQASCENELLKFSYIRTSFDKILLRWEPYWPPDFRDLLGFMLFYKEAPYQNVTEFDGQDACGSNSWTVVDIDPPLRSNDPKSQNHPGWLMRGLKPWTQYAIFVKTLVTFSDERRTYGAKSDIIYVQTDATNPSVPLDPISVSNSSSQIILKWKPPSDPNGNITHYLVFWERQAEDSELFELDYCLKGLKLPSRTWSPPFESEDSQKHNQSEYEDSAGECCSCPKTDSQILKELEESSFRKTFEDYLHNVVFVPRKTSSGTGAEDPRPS
T2 sequence (P06213 763-1382 limits assumed): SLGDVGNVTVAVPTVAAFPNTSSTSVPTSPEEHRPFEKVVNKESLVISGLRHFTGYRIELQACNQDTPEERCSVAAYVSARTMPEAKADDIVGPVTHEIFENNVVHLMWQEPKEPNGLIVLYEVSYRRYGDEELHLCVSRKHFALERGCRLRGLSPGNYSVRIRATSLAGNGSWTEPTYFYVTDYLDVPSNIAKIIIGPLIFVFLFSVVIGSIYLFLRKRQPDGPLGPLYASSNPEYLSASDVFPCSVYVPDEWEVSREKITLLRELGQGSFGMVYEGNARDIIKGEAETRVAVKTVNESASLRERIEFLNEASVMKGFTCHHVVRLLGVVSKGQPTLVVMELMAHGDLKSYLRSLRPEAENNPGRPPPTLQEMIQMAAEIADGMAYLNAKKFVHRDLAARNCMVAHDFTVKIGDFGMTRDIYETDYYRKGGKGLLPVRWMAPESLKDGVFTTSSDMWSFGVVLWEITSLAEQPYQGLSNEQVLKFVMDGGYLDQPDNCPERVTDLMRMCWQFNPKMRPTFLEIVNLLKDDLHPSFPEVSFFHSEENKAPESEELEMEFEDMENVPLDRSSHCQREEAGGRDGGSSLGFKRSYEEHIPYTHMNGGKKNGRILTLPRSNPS

| Compound | pIC50 [1] | pIC50 [2] |
| --- | --- | --- |
| CC[C@H](C)[C@H](NC(=O)CN)C(=O)N[C@H](C(=O)N[C@@H](CCC(=O)O)C(=O)N[C@@H](CCC(N)=O)C(=O)N[C@H]1CSSC[C@@H]2NC(=O)[C@H]([C@@H](C)CC)NC(=O)[C@H](CO)NC(=O)[C@H]([C@@H](C)O)NC(=O)[C@H](CSSC[C@H](NC(=O)[C@H](CC(C)C)NC(=O)[C@H](Cc3c[nH]cn3)NC(=O)[C@H](CCC(N)=O)NC(=O)[C@H](CC(N)=O)NC(=O)[C@@H](NC(=O)[C@H](Cc3ccccc3)NC(=O)CCCCCNC(=O)CCCCC(=O)N(CC(=O)N(CCO[C@H]3O[C@H](CO)[C@@H](O)[C@H](O)[C@@H]3O)CCO[C@H]3O[C@H](CO)[C@@H](O)[C@H](O)[C@@H]3O)CC(=O)N(CCO[C@H]3O[C@H](CO)[C@@H](O)[C@H](O)[C@@H]3O)CCO[C@H]3O[C@H](CO)[C@@H](O)[C@H](O)[C@@H]3O)C(C)C)C(=O)NCC(=O)N[C@@H](CO)C(=O)N[C@@H](Cc3c[nH]cn3)C(=O)N[C@@H](CC(C)C)C(=O)N[C@@H](C(C)C)C(=O)N[C@@H](CCC(=O)O)C(=O)N[C@@H](C)C(=O)N[C@@H](CC(C)C)C(=O)N[C@@H](Cc3ccc(O)cc3)C(=O)N[C@@H](CC(C)C)C(=O)N[C@@H](C(C)C)C(=O)N[C@H](C(=O)NCC(=O)N[C@@H](CCC(=O)O)C(=O)N[C@@H](CCCNC(=N)N)C(=O)NCC(=O)N[C@@H](Cc3ccccc3)C(=O)N[C@@H](Cc3ccccc3)C(=O)N[C@@H](Cc3ccc(O)cc3)C(=O)N[C@H](C(=O)N3CCC[C@H]3C(=O)N[C@@H](CCCCNC(=O)CCCCCNC(=O)CCCCC(=O)N(CC(=O)N(CCO[C@H]3O[C@H](CO)[C@@H](O)[C@H](O)[C@@H]3O)CCO[C@H]3O[C@H](CO)[C@@H](O)[C@H](O)[C@@H]3O)CC(=O)N(CCO[C@H]3O[C@H](CO)[C@@H](O)[C@H](O)[C@@H]3O)CCO[C@H]3O[C@H](CO)[C@@H](O)[C@H](O)[C@@H]3O)C(=O)N[C@H](C(=O)O)[C@@H](C)O)[C@@H](C)O)CSSC[C@@H](C(=O)N[C@@H](CC(N)=O)C(=O)O)NC(=O)[C@H](Cc3ccc(O)cc3)NC(=O)[C@H](CC(N)=O)NC(=O)[C@H](CCC(=O)O)NC(=O)[C@H](CC(C)C)NC(=O)[C@H](CCC(N)=O)NC(=O)[C@H](Cc3ccc(O)cc3)NC(=O)[C@H](CC(C)C)NC(=O)[C@H](CO)NC2=O)NC1=O)C(C)C [IOC-32] | 8.59 |  |
| CC[C@H](C)[C@H](NC(=O)CN)C(=O)N[C@H](C(=O)N[C@@H](CCC(=O)O)C(=O)N[C@@H](CCC(N)=O)C(=O)N[C@H]1CSSC[C@@H]2NC(=O)[C@H]([C@@H](C)CC)NC(=O)[C@H](CO)NC(=O)[C@H]([C@@H](C)O)NC(=O)[C@H](CSSC[C@H](NC(=O)[C@H](CC(C)C)NC(=O)[C@H](Cc3c[nH]cn3)NC(=O)[C@H](CCC(N)=O)NC(=O)[C@H](CC(N)=O)NC(=O)[C@@H](NC(=O)[C@H](Cc3ccccc3)NC(=O)CCCCC(=O)N(CC(=O)N(CCO[C@H]3O[C@H](CO)[C@@H](O)[C@H](O)[C@@H]3O)CCO[C@H]3O[C@H](CO)[C@@H](O)[C@H](O)[C@@H]3O)CC(=O)N(CCO[C@H]3O[C@H](CO)[C@@H](O)[C@H](O)[C@@H]3O)CCO[C@H]3O[C@H](CO)[C@@H](O)[C@H](O)[C@@H]3O)C(C)C)C(=O)NCC(=O)N[C@@H](CO)C(=O)N[C@@H](Cc3c[nH]cn3)C(=O)N[C@@H](CC(C)C)C(=O)N[C@@H](C(C)C)C(=O)N[C@@H](CCC(=O)O)C(=O)N[C@@H](C)C(=O)N[C@@H](CC(C)C)C(=O)N[C@@H](Cc3ccc(O)cc3)C(=O)N[C@@H](CC(C)C)C(=O)N[C@@H](C(C)C)C(=O)N[C@H](C(=O)NCC(=O)N[C@@H](CCC(=O)O)C(=O)N[C@@H](CCCNC(=N)N)C(=O)NCC(=O)N[C@@H](Cc3ccccc3)C(=O)N[C@@H](Cc3ccccc3)C(=O)N[C@@H](Cc3ccc(O)cc3)C(=O)N[C@H](C(=O)N3CCC[C@H]3C(=O)N[C@@H](CCCCNC(=O)CCCCC(=O)N(CC(=O)N(CCO[C@H]3O[C@H](CO)[C@@H](O)[C@H](O)[C@@H]3O)CCO[C@H]3O[C@H](CO)[C@@H](O)[C@H](O)[C@@H]3O)CC(=O)N(CCO[C@H]3O[C@H](CO)[C@@H](O)[C@H](O)[C@@H]3O)CCO[C@H]3O[C@H](CO)[C@@H](O)[C@H](O)[C@@H]3O)C(=O)N[C@H](C(=O)O)[C@@H](C)O)[C@@H](C)O)CSSC[C@@H](C(=O)N[C@@H](CC(N)=O)C(=O)O)NC(=O)[C@H](Cc3ccc(O)cc3)NC(=O)[C@H](CC(N)=O)NC(=O)[C@H](CCC(=O)O)NC(=O)[C@H](CC(C)C)NC(=O)[C@H](CCC(N)=O)NC(=O)[C@H](Cc3ccc(O)cc3)NC(=O)[C@H](CC(C)C)NC(=O)[C@H](CO)NC2=O)NC1=O)C(C)C [IOC-31] |  | 9.05 |
